Source: PubChem BioAssay AID256 (DTP/NCI, 2004)
“And” between values parts separate entries of the source, which are not always exact repeats. Identical values can stand only once. Toxic doses and inconclusive results are not listed. How the source made its calls: active means survival T/C of 150% or more; inactive means T/C below 125% in these data.

System: CD2F1 mice, L1210 leukemia ip, survival T/C
Assay: NCI In Vivo Anticancer Drug Screen. Data for tumor model L1210 Leukemia (intraperitoneal) in CD2F1 (CDF1) mice
Conditions: higher = longer survival
In short: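 Activity against a transplanted murine tumor was judged by comparing the compound group with a vehicle group. The outcome in the treated animals was divided by that in the controls.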

[1] = endpoint: mean survival time, dose: 100.0 mg/kg/injection, schedule: Q01DX009 (ip), vehicle: saline with Tween-80
[2] = endpoint: mean survival time, dose: 200.0 mg/kg/injection, schedule: Q01DX009 (ip), vehicle: saline with Tween-80
[3] = endpoint: mean survival time, dose: 400.0 mg/kg/injection, schedule: Q01DX009 (ip), vehicle: saline with Tween-80
[4] = endpoint: mean survival time, dose: 100.0 mg/kg/injection, schedule: Q04DX003 (ip), vehicle: saline with Tween-80
[5] = endpoint: mean survival time, dose: 200.0 mg/kg/injection, schedule: Q04DX003 (ip), vehicle: saline with Tween-80
[6] = endpoint: mean survival time, dose: 400.0 mg/kg/injection, schedule: Q04DX003 (ip), vehicle: saline with Tween-80
[7] = endpoint: mean survival time, dose: 12.5 mg/kg/injection, schedule: Q01DX009 (ip), vehicle: saline
[8] = endpoint: mean survival time, dose: 50.0 mg/kg/injection, schedule: Q01DX009 (ip), vehicle: saline
[9] = endpoint: mean survival time, dose: 100.0 mg/kg/injection, schedule: Q01DX009 (ip), vehicle: saline
[10] = endpoint: mean survival time, dose: 100.0 mg/kg/injection, schedule: Q04DX002 (ip), vehicle: saline with Tween-80
[11] = endpoint: mean survival time, dose: 200.0 mg/kg/injection, schedule: Q04DX002 (ip), vehicle: saline with Tween-80
[12] = endpoint: mean survival time, dose: 400.0 mg/kg/injection, schedule: Q04DX002 (ip), vehicle: saline with Tween-80
[13] = endpoint: mean survival time, dose: 25.0 mg/kg/injection, schedule: Q01DX009 (ip), vehicle: saline with Tween-80
[14] = endpoint: mean survival time, dose: 50.0 mg/kg/injection, schedule: Q01DX009 (ip), vehicle: saline with Tween-80

Measured: T/C

COC1C(O)CC(OC2CC(OC3CC(O[C@@H]4C(=O)c5c(cc6cc(OC7CC(OC8CC(O)C(O)C(C)O8)C(O)C(C)O7)c(C)c(O)c6c5O)C[C@H]4[C@H](OC)C(=O)[C@@H](O)[C@@H](C)O)OC(C)C3O)OC(C)C2O)OC1C (some centres not stated)
inactive: endpoint: mean survival time, dose: 0.09 mg/kg/injection, schedule: Q01DX009 (ip), vehicle: saline 97 % of control | endpoint: mean survival time, dose: 0.18 mg/kg/injection, schedule: Q01DX009 (ip), vehicle: saline 103 % of control | endpoint: mean survival time, dose: 0.37 mg/kg/injection, schedule: Q01DX009 (ip), vehicle: saline 111 % of control | endpoint: mean survival time, dose: 0.75 mg/kg/injection, schedule: Q01DX009 (ip), vehicle: saline 104 % of control | endpoint: mean survival time, dose: 1.5 mg/kg/injection, schedule: Q01DX009 (ip), vehicle: saline 95 % of control | endpoint: mean survival time, dose: 375.0 micrograms/kg/injection, schedule: Q01DX009 (ip), vehicle: saline 110 % of control | endpoint: mean survival time, dose: 750.0 micrograms/kg/injection, schedule: Q01DX009 (ip), vehicle: saline 115 % of control | endpoint: mean survival time, dose: 1500.0 micrograms/kg/injection, schedule: Q01DX009 (ip), vehicle: saline 109 % of control | endpoint: mean survival time, dose: 3000.0 micrograms/kg/injection, schedule: Q01DX009 (ip), vehicle: saline 104 % of control

CC(C)OC(=O)Nc1ccc(F)c(F)c1
inactive: [1] 95 % of control | [2] 98 % of control | [3] 114 % of control

C=C1CC2CCC1C2 (configuration not stated)
inactive: [1] 96 % of control | [4] 104 % of control | [5] 98 % of control | [6] 98 % of control

OC(CCC(O)CSc1ccccc1)CSc1ccccc1 (configuration not stated)
inactive: endpoint: mean survival time, dose: 100.0 mg/kg/injection, schedule: Q01DX009 (ip), vehicle: other 100 % of control | endpoint: mean survival time, dose: 200.0 mg/kg/injection, schedule: Q01DX009 (ip), vehicle: other 100 % of control | endpoint: mean survival time, dose: 400.0 mg/kg/injection, schedule: Q01DX009 (ip), vehicle: other 96 % of control

CCOC(=O)C1CC1C(=O)OCC (configuration not stated)
inactive: [1] 88 % of control | [4] 100 % of control | [2] 104 % of control | [5] 96 % of control | [3] 100 % of control | [6] 103 % of control

Cc1nc2scc(C)c2c(=S)[nH]1
inactive: endpoint: mean survival time, dose: 100.0 mg/kg/injection, schedule: Q01DX001 (ip), vehicle: saline with Tween-80 96 % of control | endpoint: mean survival time, dose: 200.0 mg/kg/injection, schedule: Q01DX001 (ip), vehicle: saline with Tween-80 97 % of control | endpoint: mean survival time, dose: 400.0 mg/kg/injection, schedule: Q01DX001 (ip), vehicle: saline with Tween-80 88 % of control

Nc1cc(N)c2cccnc2c1O
inactive: endpoint: mean survival time, dose: 6.25 mg/kg/injection, schedule: Q01DX009 (ip), vehicle: saline 101 % of control | [7] 114 % of control

Nc1ncnc2c1c1c(N)[nH]c(=O)nc1n2C1OC(CO)C(O)C1O (configuration not stated)
inactive: endpoint: mean survival time, dose: 12.5 mg/kg/injection, schedule: Q01DX005 (ip), vehicle: water 106 % of control | endpoint: mean survival time, dose: 25.0 mg/kg/injection, schedule: Q01DX005 (ip), vehicle: water 104 % of control | endpoint: mean survival time, dose: 50.0 mg/kg/injection, schedule: Q01DX005 (ip), vehicle: water 97 % of control | endpoint: mean survival time, dose: 100.0 mg/kg/injection, schedule: Q01DX005 (ip), vehicle: water 104 % of control | endpoint: mean survival time, dose: 200.0 mg/kg/injection, schedule: Q01DX005 (ip), vehicle: water 121 % of control

CC1(C)OCC(C(O)C(O)C(O)CO)O1 (configuration not stated)
inactive: [8] 102 % of control | [9] 98 % of control | endpoint: mean survival time, dose: 200.0 mg/kg/injection, schedule: Q01DX009 (ip), vehicle: saline 102 % of control

CCOC(=O)C(Cc1ccccc1C(=O)NC)c1ccccc1 (configuration not stated)
inactive: [4] 94 % of control | [5] 94 % of control | endpoint: mean survival time, dose: 400.0 mg/kg/injection, schedule: Q01DX009 (ip), vehicle: saline sonified 92 % of control | [6] 100 % of control

CCNC(=O)Nc1nc2ccccc2s1
inactive: [10] 103 % of control | [11] 103 % of control | [12] 92 % of control

O=C/C=C/c1ccc([N+](=O)[O-])cc1
inactive: endpoint: mean survival time, dose: 100.0 mg/kg/injection, schedule: Q04DX003 (ip), vehicle: Klucel (hydroxypropylcellulose) (HPC) 90 % of control | endpoint: mean survival time, dose: 200.0 mg/kg/injection, schedule: Q04DX003 (ip), vehicle: Klucel (hydroxypropylcellulose) (HPC) 90 % of control

NC(C(=O)O)=C(c1ccccc1)c1ccccc1
inactive: [10] 98 % of control | [11] 102 % of control | [12] 102 % of control

CC(=Nc1ccccc1)C1=C(O)C(Cc2cccc(F)c2)NC1=O (configuration not stated)
inactive: [10] 116 % of control | [12] 103 % of control

O=C(O)C1C2CCCCC21 (configuration not stated)
inactive: [1] 105 % of control | [4] 98 % of control | [2] 94 % of control | [5] 100 % of control | [3] 101 % of control | [6] 94 % of control

CC(=Nc1ccccc1)C1=C(O)C(Cc2ccc(O)c(O)c2)NC1=O (configuration not stated)
inactive: endpoint: mean survival time, dose: 50.0 mg/kg/injection, schedule: Q04DX002 (ip), vehicle: saline with Tween-80 103 % of control | [10] 103 % of control | [11] 100 % of control

O=NC1CCCCC1Cl (configuration not stated)
inactive: endpoint: mean survival time, dose: 100.0 mg/kg/injection, schedule: Q01DX001 (ip), vehicle: saline 96 % of control and 98 % of control and 93 % of control | endpoint: mean survival time, dose: 200.0 mg/kg/injection, schedule: Q01DX001 (ip), vehicle: saline 95 % of control and 102 % of control and 100 % of control | endpoint: mean survival time, dose: 400.0 mg/kg/injection, schedule: Q01DX001 (ip), vehicle: saline 101 % of control and 105 % of control

O=C1C(Cl)=C(Cl)C(=O)C(Cl)=C1Cl
inactive: [13] 101 % of control | [14] 102 % of control | [1] 98 % of control

COc1ccccc1OCC(C)=O
inactive: [4] 108 % of control | [5] 98 % of control | [6] 97 % of control

CNCc1ccc2c(c1)OCO2
inactive: endpoint: mean survival time, dose: 75.0 mg/kg/injection, schedule: Q01DX001 (ip), vehicle: saline 100 % of control | endpoint: mean survival time, dose: 150.0 mg/kg/injection, schedule: Q01DX001 (ip), vehicle: saline 103 % of control

O=C(/C=C\c1ccccc1)/C=C/c1ccccc1
inactive: endpoint: mean survival time, dose: 177.0 mg/kg/injection, schedule: Q01DX001 (ip), vehicle: other 96 % of control | endpoint: mean survival time, dose: 267.0 mg/kg/injection, schedule: Q01DX001 (ip), vehicle: other 92 % of control | endpoint: mean survival time, dose: 400.0 mg/kg/injection, schedule: Q01DX001 (ip), vehicle: other 104 % of control | endpoint: mean survival time, dose: 600.0 mg/kg/injection, schedule: Q01DX001 (ip), vehicle: other 107 % of control

CN(C)[C@@H]1C(=O)C(C(N)=O)=C(O)[C@@]2(O)C(=O)C3=C(O)c4c(O)ccc(Cl)c4[C@@](C)(O)[C@H]3C[C@@H]12
inactive: endpoint: mean survival time, dose: 12.5 mg/kg/injection, schedule: Q01DX009 (ip), vehicle: saline with Tween-80 98 % of control | [7] 107 % of control | [13] 97 % of control | endpoint: mean survival time, dose: 25.0 mg/kg/injection, schedule: Q01DX009 (ip), vehicle: saline 101 % of control | [14] 93 % of control and 108 % of control | [8] 103 % of control | [1] 104 % of control and 111 % of control | [9] 113 % of control | [2] 102 % of control

CCCCCn1c(C)cc(/C=C\c2ccc3cc(C)ccc3[n+]2C)c1C
inactive: endpoint: mean survival time, dose: 0.62 mg/kg/injection, schedule: Q01DX009 (ip), vehicle: Klucel (hydroxypropylcellulose) (HPC) 101 % of control | endpoint: mean survival time, dose: 0.63 mg/kg/injection, schedule: Q01DX009 (ip), vehicle: Klucel (hydroxypropylcellulose) (HPC) 106 % of control | endpoint: mean survival time, dose: 1.25 mg/kg/injection, schedule: Q01DX009 (ip), vehicle: Klucel (hydroxypropylcellulose) (HPC) 114 % of control and 107 % of control

CCOc1ccccc1/C=C1\N=C(c2ccc([N+](=O)[O-])cc2)OC1=O
inactive: [10] 95 % of control | [11] 91 % of control | [12] 100 % of control

CC(C)CNC1=CC(=O)c2ccccc2C1=O
inactive: [4] 95 % of control | [5] 98 % of control | [6] 101 % of control

C=CC1CCCCC1C=C (configuration not stated)
inactive: [4] 110 % of control | [5] 102 % of control | [6] 100 % of control

CN(C)c1ccc2c(SCC(=O)OCC(=O)[C@@]3(O)CC[C@H]4[C@@H]5CCC6=CC(=O)C=C[C@]6(C)[C@H]5C(=O)C[C@@]43C)c3ccc(N(C)C)cc3nc2c1
inactive: endpoint: median survival time, dose: 25.0 mg/kg/injection, schedule: Q01DX009 (ip), vehicle: Klucel (hydroxypropylcellulose) (HPC) 117 % of control and 105 % of control | endpoint: median survival time, dose: 50.0 mg/kg/injection, schedule: Q01DX009 (ip), vehicle: Klucel (hydroxypropylcellulose) (HPC) 114 % of control and 116 % of control and 108 % of control | endpoint: median survival time, dose: 100.0 mg/kg/injection, schedule: Q01DX009 (ip), vehicle: Klucel (hydroxypropylcellulose) (HPC) 116 % of control and 118 % of control and 123 % of control | endpoint: median survival time, dose: 200.0 mg/kg/injection, schedule: Q01DX009 (ip), vehicle: Klucel (hydroxypropylcellulose) (HPC) 108 % of control | endpoint: median survival time, dose: 400.0 mg/kg/injection, schedule: Q01DX009 (ip), vehicle: Klucel (hydroxypropylcellulose) (HPC) 123 % of control

CC[N+]1(C)CCC(CN2c3ccccc3Sc3ccccc32)C1 (configuration not stated)
inactive: [1] 93 % of control | [2] 98 % of control | [3] 110 % of control

CCC(=O)NC1=CC(=O)c2ccccc2C1=O
inactive: [13] 101 % of control | [14] 100 % of control
